Values quoted from earlier work, collected in patent US20110312981A1, “PREDICTIVE MARKER FOR EGFR INHIBITOR TREATMENT” (priority 2007, published 2011).
Each block holds one molecule with its values, some of them ahead of it.

Assays:
patients with NSCLC = conditions: second line after cisplatin-based first-line regimens failed; ECOG 0, 1 or 2; versus best supportive care
NSCLC = conditions: second line therapy of NSCLC
[1] = patients with cancer receiving the 150 mg/day dose
[2] = system: NSCLC patients for whom standard therapy for advanced disease has failed; conditions: single agent, versus placebo, BR.21

SMILES: CC(=O)O[C@@]12CO[C@@H]1C[C@H](O)[C@@]1(C)C(=O)[C@H](O)C3=C(C)[C@@H](OC(=O)[C@H](O)[C@@H](NC(=O)OC(C)(C)C)c4ccccc4)C[C@@](O)([C@@H](OC(=O)c4ccccc4)[C@H]21)C3(C)C [docetaxel]
survival (patients with NSCLC): improved survival

SMILES: Nc1nc2[nH]cc(CCc3ccc(C(=O)N[C@@H](CCC(=O)O)C(=O)O)cc3)c2c(=O)[nH]1 [pemetrexed]
efficacy compared with docetaxel (NSCLC): clinically equivalent efficacy
side effects compared with docetaxel (NSCLC): significantly fewer side effects

drug levels in plasma [1]: > 500 ng/mL
SMILES: C#Cc1cccc(Nc2ncnc3cc(OCCOC)c(OCCOC)cc23)c1 [Tarceva, erlotinib]
survival [2]: significantly prolongs and improves the survival
